Each structure is given as a SMILES string.

The test deals with T1, TGF-beta receptor type-1 (Homo sapiens, UniProt P36897).
T1 sequence (P36897 whole entry): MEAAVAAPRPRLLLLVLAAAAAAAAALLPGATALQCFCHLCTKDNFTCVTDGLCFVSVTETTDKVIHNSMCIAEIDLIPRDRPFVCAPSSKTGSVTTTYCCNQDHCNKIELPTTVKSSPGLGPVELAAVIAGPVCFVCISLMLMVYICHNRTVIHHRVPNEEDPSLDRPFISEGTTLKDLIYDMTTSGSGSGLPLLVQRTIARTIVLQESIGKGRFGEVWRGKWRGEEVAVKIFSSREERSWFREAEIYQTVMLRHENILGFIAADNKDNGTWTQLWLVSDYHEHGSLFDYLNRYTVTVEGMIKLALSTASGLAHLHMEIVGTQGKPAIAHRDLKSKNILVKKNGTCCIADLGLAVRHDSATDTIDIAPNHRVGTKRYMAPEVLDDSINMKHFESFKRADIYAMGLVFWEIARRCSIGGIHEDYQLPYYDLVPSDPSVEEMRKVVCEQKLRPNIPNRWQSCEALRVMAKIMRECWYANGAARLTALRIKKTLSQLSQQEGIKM
Nature of the test: ADP-Glo Kinase Assay. As to the method:
The principle of the activity assay was that TGFβR1 phosphorylates the substrate TGFβR1tide, consuming ATP in the process. […] The specific experimental steps were as follows. Compounds were diluted 4-fold in DMSO in a dilution plate, with the final starting concentration of the compounds being 10 μM, across 10 concentration gradient points. The compounds were then further diluted 50-fold into the kinase reaction buffer and incubated on a shaker for 20 minutes. Kinase was formulated with an enzyme reaction buffer. 2 μl kinase was added to each well of the reaction plate. 1 μl of the compound diluted in buffer was added to each well, and then the plate was sealed with a sealing membrane and centrifuged at 1000 g for 30 seconds, leaving it at room temperature for 10 minutes. Solutions of TGFβR1tide and ATP were prepared with the kinase reaction buffer, and 2 μL of the TGFβR1tide/ATP solution was added to the reaction plate. The plate was sealed with a sealing film and centrifuged at 1000 g for 30 seconds. It was allowed to react at room temperature for 60 minutes. Subsequently, 4 μL of ADP-Glo was transferred to a 384-well reaction plate and centrifuged at 1000 rpm/min for 1 minute, followed by incubation at 25° C. for 40 minutes. […] The RLU (Relative Luminescence Unit) signal was read using a BMG microplate reader, which was used to characterize the degree of kinase activity.

`Cc1cccc(-c2n[nH]cc2-c2ccnc(-c3nc4c([nH]3)CN(C(=O)N3CCN(C)CC3)C4)c2)n1` [US20250215017, Compound 7]: the IC50 (usually the concentration at which inhibition is half-maximal) was determined as 1.1 nM.

Values taken from BindingDB's records for patent US20250215017 (Medinno Pharmaceutical Technology (Zhuhai) Co., 2025).
